# Where two headings read alike, the source gives them in different places.
# Tests used:
# Type in all cases: cell-based
# [1] = target: T1, human TLR8 (Homo sapiens, UniProt Q9NR97); assay: TLR8 inhibition reporter assay (HEK-Blue cells, secreted embryonic alkaline phosphatase reporter); conditions: HEK-Blue cells overexpressing human TLR8, stimulated with R848 15.9 μM; read-out: TLR 8 IC50
# T1 construct: host or cells: HEK-Blue cells (HEK293-derived reporter line)
# T1 sequence (Q9NR97 27-1041): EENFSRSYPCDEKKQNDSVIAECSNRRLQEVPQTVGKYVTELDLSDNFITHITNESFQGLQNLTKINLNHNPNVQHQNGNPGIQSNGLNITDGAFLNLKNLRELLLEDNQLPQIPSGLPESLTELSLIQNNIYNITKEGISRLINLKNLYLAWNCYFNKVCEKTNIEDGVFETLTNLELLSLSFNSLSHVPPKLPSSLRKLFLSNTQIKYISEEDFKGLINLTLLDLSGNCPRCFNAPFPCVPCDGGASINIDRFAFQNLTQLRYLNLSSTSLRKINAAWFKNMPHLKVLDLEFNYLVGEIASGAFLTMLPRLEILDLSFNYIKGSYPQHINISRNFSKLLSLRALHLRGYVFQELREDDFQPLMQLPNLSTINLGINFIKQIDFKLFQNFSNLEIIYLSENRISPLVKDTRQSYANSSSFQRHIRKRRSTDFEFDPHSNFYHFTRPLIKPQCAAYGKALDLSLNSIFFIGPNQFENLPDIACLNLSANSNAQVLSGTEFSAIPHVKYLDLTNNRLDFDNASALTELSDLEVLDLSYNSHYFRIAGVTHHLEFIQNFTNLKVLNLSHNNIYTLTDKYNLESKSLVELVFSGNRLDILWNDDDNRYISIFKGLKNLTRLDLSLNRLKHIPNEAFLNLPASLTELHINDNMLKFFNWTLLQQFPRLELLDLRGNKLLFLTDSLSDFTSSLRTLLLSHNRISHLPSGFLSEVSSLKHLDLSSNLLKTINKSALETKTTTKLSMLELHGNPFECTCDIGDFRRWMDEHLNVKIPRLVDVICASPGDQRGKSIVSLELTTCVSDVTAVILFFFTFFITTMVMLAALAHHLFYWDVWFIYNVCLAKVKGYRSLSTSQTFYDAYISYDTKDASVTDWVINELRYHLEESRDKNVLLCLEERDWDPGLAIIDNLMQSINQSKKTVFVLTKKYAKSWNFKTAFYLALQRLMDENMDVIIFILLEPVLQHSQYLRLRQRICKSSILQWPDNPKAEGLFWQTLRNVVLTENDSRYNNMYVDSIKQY
# How it was run: (§1)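 HEK-Blue cells expressing human TLR7, TLR8 or TLR9 with an NF-κB/AP-1-driven SEAP reporter were pretreated with compound (0.05 nM–50 μM final) for 30 min at room temperature. Agonists were gardiquimod 7.5 μM for TLR7, R848 15.9 μM for TLR8 and ODN2006 5 nM for TLR9. SEAP was read after 22 h at 37 °C, and inhibition was calculated relative to agonist-plus-DMSO and known-inhibitor controls.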
# [2] = target: T2, human TLR9 (Homo sapiens, UniProt Q9NR96); assay: TLR9 inhibition reporter assay (HEK-Blue cells, secreted embryonic alkaline phosphatase reporter)
# T2 construct: host or cells: HEK-Blue cells (HEK293-derived reporter line)
# T2 sequence (Q9NR96 26-1032): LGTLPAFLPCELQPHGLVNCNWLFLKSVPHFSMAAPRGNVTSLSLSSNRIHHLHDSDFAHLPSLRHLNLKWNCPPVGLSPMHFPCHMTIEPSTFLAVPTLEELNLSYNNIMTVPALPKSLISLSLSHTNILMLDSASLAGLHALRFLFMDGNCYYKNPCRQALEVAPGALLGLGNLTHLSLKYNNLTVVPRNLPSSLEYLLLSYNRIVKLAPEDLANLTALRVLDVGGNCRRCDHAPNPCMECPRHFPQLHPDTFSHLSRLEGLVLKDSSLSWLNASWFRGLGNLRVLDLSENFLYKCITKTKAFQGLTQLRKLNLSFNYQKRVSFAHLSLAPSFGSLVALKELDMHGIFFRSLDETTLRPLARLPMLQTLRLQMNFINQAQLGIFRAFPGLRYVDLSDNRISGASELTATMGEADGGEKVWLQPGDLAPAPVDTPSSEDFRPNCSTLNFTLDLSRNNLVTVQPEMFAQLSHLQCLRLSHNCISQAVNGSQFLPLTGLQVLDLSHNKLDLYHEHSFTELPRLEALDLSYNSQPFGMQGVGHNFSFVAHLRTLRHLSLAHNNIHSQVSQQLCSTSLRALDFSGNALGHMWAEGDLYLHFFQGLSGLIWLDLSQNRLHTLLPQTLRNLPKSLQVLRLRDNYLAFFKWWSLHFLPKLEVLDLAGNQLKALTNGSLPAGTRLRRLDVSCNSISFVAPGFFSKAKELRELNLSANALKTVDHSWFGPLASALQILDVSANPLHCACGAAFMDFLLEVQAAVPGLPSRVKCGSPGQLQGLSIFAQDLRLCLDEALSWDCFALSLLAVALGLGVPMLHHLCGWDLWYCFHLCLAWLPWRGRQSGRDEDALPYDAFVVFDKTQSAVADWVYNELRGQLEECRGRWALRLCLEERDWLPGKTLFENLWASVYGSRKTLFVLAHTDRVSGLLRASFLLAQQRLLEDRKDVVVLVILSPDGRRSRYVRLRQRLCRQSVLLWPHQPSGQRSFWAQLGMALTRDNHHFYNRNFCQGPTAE
# How it was run: as §1
# [3] = target: T3, human TLR7 (Homo sapiens, UniProt Q9NYK1); assay: TLR7 inhibition reporter assay (HEK-Blue cells, secreted embryonic alkaline phosphatase reporter); conditions: HEK-Blue cells overexpressing human TLR7, stimulated with gardiquimod 7.5 μM; read-out: TLR 7 IC50
# T3 construct: host or cells: HEK-Blue cells (HEK293-derived reporter line)
# T3 sequence (Q9NYK1 27-1049): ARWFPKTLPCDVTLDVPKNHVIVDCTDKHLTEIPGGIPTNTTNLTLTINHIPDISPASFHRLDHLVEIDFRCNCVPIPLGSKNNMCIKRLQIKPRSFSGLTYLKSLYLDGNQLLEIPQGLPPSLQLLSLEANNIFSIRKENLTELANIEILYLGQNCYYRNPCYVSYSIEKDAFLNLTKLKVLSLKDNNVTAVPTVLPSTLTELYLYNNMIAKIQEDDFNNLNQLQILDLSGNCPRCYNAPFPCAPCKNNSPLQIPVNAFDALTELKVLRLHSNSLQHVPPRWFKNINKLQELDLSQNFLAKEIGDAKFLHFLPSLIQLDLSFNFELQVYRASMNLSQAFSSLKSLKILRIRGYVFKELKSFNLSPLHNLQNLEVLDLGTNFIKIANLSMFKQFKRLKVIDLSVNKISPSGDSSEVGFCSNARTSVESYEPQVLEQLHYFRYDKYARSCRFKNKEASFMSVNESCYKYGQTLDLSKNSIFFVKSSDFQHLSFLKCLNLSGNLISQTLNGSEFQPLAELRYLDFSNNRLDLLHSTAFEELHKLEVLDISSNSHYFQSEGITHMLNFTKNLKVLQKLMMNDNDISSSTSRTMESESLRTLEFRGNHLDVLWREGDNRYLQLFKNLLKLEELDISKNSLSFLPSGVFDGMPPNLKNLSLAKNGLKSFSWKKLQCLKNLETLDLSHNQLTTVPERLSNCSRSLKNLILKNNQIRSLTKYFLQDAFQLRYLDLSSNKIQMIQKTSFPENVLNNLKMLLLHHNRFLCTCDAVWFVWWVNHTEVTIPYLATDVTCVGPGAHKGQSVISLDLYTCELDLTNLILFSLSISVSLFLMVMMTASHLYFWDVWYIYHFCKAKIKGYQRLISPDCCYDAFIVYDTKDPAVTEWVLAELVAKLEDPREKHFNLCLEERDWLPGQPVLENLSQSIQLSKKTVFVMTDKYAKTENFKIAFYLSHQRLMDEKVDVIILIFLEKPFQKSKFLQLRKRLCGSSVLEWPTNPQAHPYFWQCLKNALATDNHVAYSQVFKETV
# How it was run: as §1
# [4] = HEK-Blue cells overexpressing human TLR9, stimulated with ODN2006 5 nM, 22 hour incubation, reporter readout
# [5] = HEK-Blue cells overexpressing human TLR9, stimulated with ODN2006 5 nM, read-out: TLR 9 IC50
# [6] = HEK-Blue human TLR9 reporter cells
IC50 [1] [nM],"IC50 [2, 4] [nM]","IC50 [2, 5] [nM]",IC50 [3] [nM],IC50 [2] [nM],"IC50 [2, 6] [nM]",SMILES
4400,270,267,1700,–,–,"CCN(C)C1CCN(c2ccc(-c3cc(C)c4nc(-c5ccc(S(C)(=O)=O)cc5)n(C)c4c3)cc2)CC1 [Example 386, 1-(4-(1,4-dimethyl-2-(4-(methylsulfonyl)phenyl)-1H-benzo[d]imidazol-6-yl)phenyl)-N-ethyl-N-methylpiperidin-4-amine]"
> 50000,–,4660,> 50000,4700,–,"Cn1c(-c2ccc(S(C)(=O)=O)cc2)nc2cc(C3CCN(C4CC5CCC(C4)N5C4COC4)CC3)cc(F)c21 (single isomer, unassigned) [Example 214, 7-fluoro-1-methyl-2-(4-(methylsulfonyl)phenyl)-5-(1-(8-(oxetan-3-yl)-8-azabicyclo[3.2.1]octan-3-yl)piperidin-4-yl)-1H-benzo[d]imidazole]"
> 50000,–,58,3000,–,58,"Cn1c(-c2ccc(S(C)(=O)=O)cc2)nc2c(F)cc(C3CCN(C4CCCN(CC5CC5)CC4)CC3)cc21 (single isomer, unassigned) [Example 298, 6-(1-(1-(cyclopropylmethyl)azepan-4-yl)piperidin-4-yl)-4-fluoro-1-methyl-2-(4-(methylsulfonyl)phenyl)-1H-benzo[d]imidazole]"
> 50000,–,456,> 50000,460,–,"Cn1c(-c2ccc(S(C)(=O)=O)cc2)nc2cc(C3CCN(C4CC5CCC(C4)N5C4CCOCC4)CC3)cc(F)c21 (stereo not drawn) [Example 212, 7-fluoro-1-methyl-2-(4-(methylsulfonyl)phenyl)-5-(1-(8-(tetrahydro-2H-pyran-4-yl)-8-azabicyclo[3.2.1]octan-3-yl)piperidin-4-yl)-1H-benzo[d]imidazole]"
1100,56,–,5900,–,–,"COc1ccc(-c2nc3ccc(C4CCN(C5CCN(C(C)C)CC5)CC4)cc3n2C)cc1OC [Example 1, 2-(3,4-dimethoxyphenyl)-6-(1′-isopropyl-[1,4′-bipiperidin]-4-yl)-1-methyl-1H-benzo[d]imidazole]"
> 50000,–,51,26100,51,–,"Cn1c(-c2ccc(S(C)(=O)=O)cc2)nc2ccc(C3CCN(C4CC5CCC(C4)N5C4CCOCC4)CC3)c(F)c21 (stereo not drawn) [Example 274, 7-fluoro-1-methyl-2-(4-(methylsulfonyl)phenyl)-6-(1-(8-(tetrahydro-2H-pyran-4-yl)-8-azabicyclo[3.2.1]octan-3-yl)piperidin-4-yl)-1H-benzo[d]imidazole]"
> 50000,–,490,> 50000,490,–,"Cn1c(-c2ccc(S(C)(=O)=O)cc2)nc2c(F)c(C3CCN(C4CC5CCC(C4)N5C4COC4)CC3)ccc21 (stereo not drawn) [Example 195, 4-fluoro-1-methyl-2-(4-(methylsulfonyl)phenyl)-5-(1-(8-(oxetan-3-yl)-8-azabicyclo[3.2.1]octan-3-yl)piperidin-4-yl)-1H-benzo[d]imidazole]"
16700,13,–,> 50000,–,–,"CC(C)N1CCCC(N2CCC(c3ccc4nc(-c5ccc(S(C)(=O)=O)cc5)n(C)c4c3F)CC2)CC1 (single isomer, unassigned) [Example 114, 7-fluoro-6-(1-(1-isopropylazepan-4-yl)piperidin-4-yl)-1-methyl-2-(4-(methylsulfonyl)phenyl)-1H-benzo[d]imidazole]"
> 50000,–,94,1400,–,94,"CC(C)CN1CCC(N2CCC(c3cc(F)c4nc(-c5ccc(S(C)(=O)=O)cc5)n(C5CC5)c4c3)CC2)CC1 [Example 319, 1-cyclopropyl-4-fluoro-6-(1′-isobutyl-[1,4′-bipiperidin]-4-yl)-2-(4-(methylsulfonyl)phenyl)-1H-benzo[d]imidazole]"
> 50000,–,5310,> 50000,5300,–,"Cn1c(-c2ccc(S(C)(=O)=O)cc2)nc2cc(C3CCN(C4CC5CCC(C4)N5C4COC4)CC3)c(F)cc21 (single isomer, unassigned) [Example 254, 6-fluoro-1-methyl-2-(4-(methylsulfonyl)phenyl)-5-(1-(8-(oxetan-3-yl)-8-azabicyclo[3.2.1]octan-3-yl)piperidin-4-yl)-1H-benzo[d]imidazole]"
> 50000,170,171,16000,–,–,"COc1ccc(-c2nc3c(C)cc(C4CCN(C5CCN(C6CC6)CC5)CC4)cc3[nH]2)cc1F [Example 57, 6-(1′-cyclopropyl-[1,4′-bipiperidin]-4-yl)-2-(3-fluoro-4-methoxyphenyl)-4-methyl-1H-benzo[d]imidazole]"

# Reference: patent US12492188B2, “1H-benzo[D]imidazole derivatives as TLR9 inhibitors for the treatment of fibrosis” (BRISTOL-MYERS SQUIBB COMPANY, priority 2020, dated 2025)
